# Experiments:
# Type in all cases: cell-based
# [1] = test system: STAT3; test: STAT3 activation (pSTAT3) in HEME-treated mouse brain endothelial cell line CRL2581; conditions: CRL2581 cells; for pSTAT3 level: FIG. 6B, 6C, 6G
# Text: (§1) FIGS. 6D and 6E show protein expression of CXCL10 relative to actin in untreated control cells (D, E) and in cells treated with siSTAT3 (D), HEME (D, E), siSTAT3+HEME (D), AG490 (E) or AG490+HEME (E).
# (§2) High level of free HEME produced during malaria infection causes inflammation that damages host vascular endothelium and is a major contributor to pathogenesis of severe malaria. To determine how HEME stimulates HO-1, CXCL10 and STAT3 signaling pathways in vitro, mouse brain endothelial cell line CRL2581 was treated with HEME and the effects of HEME on expression of HO-1, CXCL10 and STAT3 activation was assessed. […] When pSTAT3 was reduced by short interfering STAT3 (siSTAT3) (FIG. 6B) or pharmacological inhibitor of Jak, AG490 (FIG. 6C), HO-1 protein expression was inhibited correspondingly.
# [2] = test system: HO-1; test: HO-1 expression in mouse brain endothelial cell line CRL2581; conditions: CRL2581 cells; for expression of HO-1 mRNA and protein: data not shown
# Text: as §1, §2
# [3] = test system: CXCL10; test: CXCL10 expression and promoter activity in mouse brain endothelial cell line CRL2581; conditions: CRL2581 cells
# Text: as §1, §2
# [4] = test system: Human brain microvascular endothelial cells (HBVEC); test: HEME-induced cell death of HBVEC by MTT assay; conditions: HEME+AG490 (50 μmol/l) for 24 h, FIG. 7
# Experimental: Human brain microvascular endothelial cells (HBVEC) were treated with HEME or with HEME plus AG490 and monitored for cell death progression by MTT assay.
# Cell death progression in HBVEC cultured after treatment with HEME or HEME+AG490 (50 μmol/l) for 24 h as assayed by MTT assay (*P<0.05, n=3 triplicate experiments). The curves correspond to 3 experiments run in parallel. In all the samples, the same concentration of vehicle (DMSO, 0.1%) was used.
# [5] = test system: JAK/STAT3 signaling pathway; test: Human JAK/STAT signaling pathway real time RT^2 Profile PCR arrays in HBVEC; conditions: HBVEC treated with 20 μM HEME vs vehicle; FIG. 8
# Experimental: Target genes of JAK/STAT3 signaling pathway upon HEME treatment was further assessed using real time RT^2 Profile PCR arrays (Qiagen, PAHS-039A). The results shown in FIG. 7 are expressed as the fold changes in expression obtained by comparing HBVEC treated with 20 μM HEME or with vehicle as control. […] The up regulated genes include STAT-induced gene matrix metallopeptidase 3 (MMP3), apoptosis-related gene CCAAT/enhancer binding protein (C/EBPb), Fc fragment of IgG, high affinity Ia, receptor (FCGR1A), Jun B proto-oncogene (JUNB), nuclear factor of kappa light polypeptide gene enhancer in B-cells 1 (NFκB), suppressor of cytokine signaling (SOCS3), SOCS4 and signal transducer and activator of transcription 4 (STAT4).
structure (smiles),measurement,setting,value
"N#C/C(=C\c1ccc(O)c(O)c1)C(=O)NCc1ccccc1 [AG490, tyrphostin AG490]",pSTAT3 level,[1],reduced
same,HO-1 protein expression,"[2]; HEME-induced, pSTAT3 reduced, FIG. 6B, 6C",inhibited
same,expression of CXCL10,"[3]; protein relative to actin, FIG. 6D, 6E",reduced expression
same,HEME-induced apoptosis / cell death in HBVEC,[4],can rescue the HEME-induced apoptosis
"C=CC1=C(C)c2cc3[n-]c(cc4nc(cc5[n-]c(cc1n2)c(C)c5CCC(=O)[O-])C(CCC(=O)[O-])=C4C)c(C)c3C=C.[Co+2].[H+].[H+] [CoPP, cobalt protoporphyrin]",pSTAT3 level,[1],increased
same,expression of HO-1 mRNA and protein,[2],significantly up regulated
C=CC1=C(C)c2cc3[n-]c(cc4[n-]c(cc5nc(cc1n2)C(C)=C5C=C)c(C)c4CCC(=O)O)c(CCC(=O)O)c3C.[Fe+2] [HEME],HEME concentration at which pSTAT3 peaked,[1]; FIG. 6A,5 μM
same,HEME concentration from which pSTAT3 was increased,[1]; FIG. 6A,1 μM
same,expression of HO-1 mRNA and protein,[2],significantly up regulated
same,expression of CXCL10 mRNA,[3],significantly up regulated
same,CXCL10 promoter activity,[3]; data not shown,enhances CXCL10 promoter activity in a dose-dependent manner
same,"fold-change of down regulated genes (F2R, OAS1)",[5],greater than 2 fold
same,"fold-change of up regulated genes (MMP3, C/EBPb, FCGR1A, JUNB, NFκB, SOCS3, SOCS4, STAT4)",[5],greater than 2 fold
C=CC1=C(C)c2cc3[n-]c(cc4[n-]c(cc5nc(cc1n2)C(C)=C5C=C)c(C)c4CCC(=O)O)c(CCC(=O)O)c3C.[Zn+2] [ZnPP],pSTAT3 level,[1],decreased
same,expression of HO-1 mRNA and protein,[2],down regulated

# From patent US8791067B2, “Method for treating malaria” (Morehouse School of Medicine, priority 2012, dated 2014)
